Experimental data: ChEMBL document CHEMBL1146385, “Discovery of novel phenoxyacetic acid derivatives as antimycobacterial agents” (2007)
Converted amounts (≈) assume the structure as drawn.

Test system: Mycobacterium tuberculosis
Assay: Antimycobacterial activity against Mycobacterium tuberculosis H37Rv ATCC 27294 by broth micro dilution assay
Type: functional

| Structure (SMILES) | MIC [µg/mL] |
| --- | --- |
| COc1cc(C2=NN(C(N)=O)C(c3ccc(C)cc3)C2)ccc1OCC(=O)O (configuration not stated) | 4.12 (≈ 10.7 µM) |
| COc1cc(C2=NN(C(N)=S)C(c3ccc(N)cc3)C2)ccc1OCC(=O)O (configuration not stated) | 12.5 (≈ 31.2 µM) |
| COc1cc(C2=NN(C(N)=S)C(Cc3ccccc3)C2)ccc1OCC(=O)O (configuration not stated) | 6.25 (≈ 15.6 µM) |
| COc1cc(C2=NN(C(N)=O)C(c3ccc(O)cc3)C2)ccc1OCC(=O)O (configuration not stated) | 1.23 (≈ 3.19 µM) |
| COc1cc(C2=NN(C(N)=S)C(c3ccc(F)cc3)C2)ccc1OCC(=O)O (configuration not stated) | 0.96 (≈ 2.38 µM) |
| COc1cc(C2=NN(C(N)=O)C(c3cccc([N+](=O)[O-])c3)C2)ccc1OCC(=O)O (configuration not stated) | 6.25 (≈ 15.1 µM) |
| COc1cc(C2=NN(C(N)=O)C(c3ccc(F)cc3)C2)ccc1OCC(=O)O (configuration not stated) | 3.16 (≈ 8.16 µM) |
| COc1cc(C2=NN(C(N)=S)C(c3ccccc3)C2)ccc1OCC(=O)O (configuration not stated) | 6.25 (≈ 16.2 µM) |
| COc1cc(C2=NN(C(N)=S)C(c3ccc(Cl)cc3)C2)ccc1OCC(=O)O (configuration not stated) | 0.06 (≈ 0.143 µM) |
| COc1cc(C2=NN(C(N)=S)C(c3ccc(C)cc3)C2)ccc1OCC(=O)O (configuration not stated) | 6.15 (≈ 15.4 µM) |
| COc1cc(C2=NN(C(N)=S)C(c3ccc(O)cc3)C2)ccc1OCC(=O)O (configuration not stated) | 0.2 (≈ 0.498 µM) |
| COc1cc(C2=NN(C(N)=S)C(c3ccccc3Cl)C2)ccc1OCC(=O)O (configuration not stated) | 0.12 (≈ 0.286 µM) |
| COc1cc(C2=NN(C(N)=S)C(c3ccc([N+](=O)[O-])cc3)C2)ccc1OCC(=O)O (configuration not stated) | 6.32 (≈ 14.7 µM) |
| COc1cc(C2=NN(C(N)=O)C(c3ccc(N)cc3)C2)ccc1OCC(=O)O (configuration not stated) | 5.32 (≈ 13.8 µM) |
| COc1cc(C2=NN(C(N)=O)C(c3ccc(Cl)cc3)C2)ccc1OCC(=O)O (configuration not stated) | 0.13 (≈ 0.322 µM) |
| COc1cc(C2=NN(C(N)=S)C(c3cccc([N+](=O)[O-])c3)C2)ccc1OCC(=O)O (configuration not stated) | 6.25 (≈ 14.5 µM) |
| COc1cc(C2=NN(C(N)=O)C(c3ccccc3Cl)C2)ccc1OCC(=O)O (configuration not stated) | 1.26 (≈ 3.12 µM) |
| COc1cc(C2=NN(C(N)=O)C(c3ccccc3O)C2)ccc1OCC(=O)O (configuration not stated) | 0.58 (≈ 1.51 µM) |
| COc1cc(C2=NN(C(N)=S)C(c3ccccc3O)C2)ccc1OCC(=O)O (configuration not stated) | 0.58 (≈ 1.44 µM) |
| COc1cc(C2=NN(C(N)=O)C(Cc3ccccc3)C2)ccc1OCC(=O)O (configuration not stated) | 6.25 (≈ 16.3 µM) |
| COc1cc(C2=NN(C(N)=O)C(c3ccc([N+](=O)[O-])cc3)C2)ccc1OCC(=O)O (configuration not stated) | 6.25 (≈ 15.1 µM) |
| COc1cc(C2=NN(C(N)=O)C(c3ccccc3)C2)ccc1OCC(=O)O (configuration not stated) | 6.25 (≈ 16.9 µM) |
